Measured values reported in US10428134B2, “Immunoglobulins and uses thereof” (JANSSEN PHARMACEUTICA NV, priority 2016, dated 2019).

Columns and labels:
CALCR = molecular target: T1, CALCR (Homo sapiens, UniProt P30988); assay: class B GPCR panel cAMP assay, CALCR; format: cell-based
T1 construct: host or cells: cells expressing CALCR (unnamed vendor)
T1 sequence (P30988 25-474): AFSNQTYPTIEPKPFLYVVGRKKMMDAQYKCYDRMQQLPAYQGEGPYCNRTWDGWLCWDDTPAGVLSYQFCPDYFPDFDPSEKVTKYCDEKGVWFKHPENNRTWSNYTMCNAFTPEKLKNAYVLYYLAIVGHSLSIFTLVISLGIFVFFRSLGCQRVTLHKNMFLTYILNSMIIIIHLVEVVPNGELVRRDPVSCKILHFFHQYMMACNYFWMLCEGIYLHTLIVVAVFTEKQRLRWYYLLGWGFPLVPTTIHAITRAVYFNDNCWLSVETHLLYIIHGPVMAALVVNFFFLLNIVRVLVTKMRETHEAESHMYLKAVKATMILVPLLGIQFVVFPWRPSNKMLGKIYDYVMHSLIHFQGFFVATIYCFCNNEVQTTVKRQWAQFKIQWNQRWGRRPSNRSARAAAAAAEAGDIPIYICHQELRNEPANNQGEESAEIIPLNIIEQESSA
Protocol: (§1) The assays were performed according to the vendor's standard operating procedures with a positive control included for each receptor tested.

PTHR1 = molecular target: T2, PTHR1 (Homo sapiens, UniProt Q03431); assay: class B GPCR panel cAMP assay, PTHR1; format: cell-based; conditions: read-out: Max response
T2 construct: host or cells: cells expressing PTHR1 (unnamed vendor)
T2 sequence (Q03431 27-593): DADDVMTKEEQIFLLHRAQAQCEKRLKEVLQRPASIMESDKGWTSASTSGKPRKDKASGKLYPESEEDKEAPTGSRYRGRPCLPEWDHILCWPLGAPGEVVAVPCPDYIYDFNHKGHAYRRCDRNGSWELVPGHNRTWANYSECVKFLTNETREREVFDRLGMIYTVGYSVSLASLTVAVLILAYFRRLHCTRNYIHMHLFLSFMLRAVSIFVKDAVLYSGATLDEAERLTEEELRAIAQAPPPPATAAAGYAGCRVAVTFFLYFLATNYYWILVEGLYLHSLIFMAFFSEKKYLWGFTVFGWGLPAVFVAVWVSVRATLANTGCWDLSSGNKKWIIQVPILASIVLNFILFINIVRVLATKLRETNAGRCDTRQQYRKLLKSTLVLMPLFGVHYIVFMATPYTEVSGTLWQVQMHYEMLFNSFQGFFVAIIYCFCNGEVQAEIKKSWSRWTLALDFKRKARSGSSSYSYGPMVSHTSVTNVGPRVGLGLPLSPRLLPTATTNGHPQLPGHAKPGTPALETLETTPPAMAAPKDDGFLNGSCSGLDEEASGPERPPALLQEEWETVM
Protocol: as §1

SMILES	Curve Bottom (CALCR; CALCR cAMP assay)	Curve Top (CALCR; CALCR cAMP assay)	Hill (CALCR; CALCR cAMP assay)	Emax (CALCR; read-out: Max response) [%]	Emax (PTHR1) [%]
CC(C)C[C@H](NC(=O)[C@H](CCCCN)NC(=O)CNC(=O)[C@H](CC(C)C)NC(=O)[C@@H](NC(=O)[C@@H]1CSSC[C@H](N)C(=O)N[C@@H](CO)C(=O)N[C@@H](CC(N)=O)C(=O)N[C@@H](CC(C)C)C(=O)N[C@@H](CO)C(=O)N[C@@H]([C@@H](C)O)C(=O)N1)C(C)C)C(=O)N[C@@H](CO)C(=O)N[C@@H](CCC(N)=O)C(=O)N[C@@H](CCC(=O)O)C(=O)N[C@@H](CC(C)C)C(=O)N[C@@H](Cc1c[nH]cn1)C(=O)N[C@@H](CCCCN)C(=O)N[C@@H](CC(C)C)C(=O)N[C@@H](CCC(N)=O)C(=O)N[C@H](C(=O)N[C@@H](Cc1ccc(O)cc1)C(=O)N1CCC[C@H]1C(=O)N[C@@H](CCCNC(=N)N)C(=O)N[C@H](C(=O)N[C@@H](CC(N)=O)C(=O)N[C@H](C(=O)NCC(=O)N[C@@H](CO)C(=O)NCC(=O)N[C@H](C(=O)N1CCC[C@H]1C(N)=O)[C@@H](C)O)[C@@H](C)O)[C@@H](C)O)[C@@H](C)O [Calcitonin]	−6.2187	105	1.5254	101	
CC[C@H](C)[C@H](NC(=O)[C@H](CCC(=O)O)NC(=O)[C@H](CO)NC(=O)[C@@H](NC(=O)[C@@H](N)CO)C(C)C)C(=O)N[C@@H](CCC(N)=O)C(=O)N[C@@H](CC(C)C)C(=O)N[C@@H](CCSC)C(=O)N[C@@H](Cc1cnc[nH]1)C(=O)N[C@@H](CC(N)=O)C(=O)N[C@@H](CC(C)C)C(=O)NCC(=O)N[C@@H](CCCCN)C(=O)N[C@@H](Cc1cnc[nH]1)C(=O)N[C@@H](CC(C)C)C(=O)N[C@@H](CC(N)=O)C(=O)N[C@@H](CO)C(=O)N[C@@H](CCSC)C(=O)N[C@@H](CCC(=O)O)C(=O)N[C@@H](CCCNC(=N)N)C(=O)N[C@H](C(=O)N[C@@H](CCC(=O)O)C(=O)N[C@@H](Cc1c[nH]c2ccccc12)C(=O)N[C@@H](CC(C)C)C(=O)N[C@@H](CCCNC(=N)N)C(=O)N[C@@H](CCCCN)C(=O)N[C@@H](CCCCN)C(=O)N[C@@H](CC(C)C)C(=O)N[C@@H](CCC(N)=O)C(=O)N[C@@H](CC(=O)O)C(=O)N[C@H](C(=O)N[C@@H](Cc1cnc[nH]1)C(=O)N[C@@H](CC(N)=O)C(=O)N[C@@H](Cc1ccccc1)C(=O)O)C(C)C)C(C)C [PTH(1-34)]					93.6
